Each structure is given as a SMILES string.

The target of the assay is T1, HEK-Blue-hTLR8 cells (Homo sapiens, UniProt Q9NR97).
T1 construct: expressed in transfected cells; host or cells: HEK-Blue-hTLR8 cells (HEK293-derived reporter line)
T1 sequence (Q9NR97 27-1041): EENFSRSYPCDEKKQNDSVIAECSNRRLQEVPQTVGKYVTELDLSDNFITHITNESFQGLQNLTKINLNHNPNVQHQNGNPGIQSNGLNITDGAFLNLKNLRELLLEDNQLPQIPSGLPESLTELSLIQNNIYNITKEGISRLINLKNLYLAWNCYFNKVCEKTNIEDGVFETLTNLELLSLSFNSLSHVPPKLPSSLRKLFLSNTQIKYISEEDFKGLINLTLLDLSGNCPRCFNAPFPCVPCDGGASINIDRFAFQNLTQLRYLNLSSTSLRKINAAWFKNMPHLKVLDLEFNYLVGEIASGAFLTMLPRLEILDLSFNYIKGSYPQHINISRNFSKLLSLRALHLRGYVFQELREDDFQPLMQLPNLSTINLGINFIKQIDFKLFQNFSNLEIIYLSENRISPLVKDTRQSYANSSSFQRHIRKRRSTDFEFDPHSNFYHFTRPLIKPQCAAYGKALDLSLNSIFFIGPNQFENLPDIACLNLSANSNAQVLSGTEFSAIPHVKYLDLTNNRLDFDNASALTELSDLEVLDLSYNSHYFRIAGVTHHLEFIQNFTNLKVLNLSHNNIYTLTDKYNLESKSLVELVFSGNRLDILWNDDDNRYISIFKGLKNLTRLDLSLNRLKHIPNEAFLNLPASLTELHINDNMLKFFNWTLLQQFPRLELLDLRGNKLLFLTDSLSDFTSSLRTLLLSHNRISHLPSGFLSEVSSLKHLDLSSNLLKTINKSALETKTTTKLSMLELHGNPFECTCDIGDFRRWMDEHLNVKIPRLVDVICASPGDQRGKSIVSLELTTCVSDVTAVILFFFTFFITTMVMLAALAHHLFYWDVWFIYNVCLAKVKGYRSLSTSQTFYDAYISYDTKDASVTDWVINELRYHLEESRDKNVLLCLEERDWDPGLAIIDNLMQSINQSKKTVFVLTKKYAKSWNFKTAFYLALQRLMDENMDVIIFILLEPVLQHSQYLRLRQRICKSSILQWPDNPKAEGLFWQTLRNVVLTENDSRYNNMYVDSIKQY
Description: HEK-Blue-hTLR8 cell inhibition assay. The assay is classed as cell-based. The settings on record: R848 3 µM, 16 h, OD 620 nm, read-out: TLR8 IC50. The essentials:
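Cells were pre-incubated 4 h, then co-treated 16 h at 37 °C with compound (10 doses, 0.5–10000 nM final) plus R848 (0.8 µM for TLR7, 3 µM for TLR8) or ODN2006 (1 µM, TLR9). Reporter OD620 gave inhibition relative to DMSO blank and agonist-only controls; IC50 came from curve fitting.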

Broadly, the IC50 is the midpoint of a concentration-inhibition curve. On to `CN1CCC(c2nnc([C@]34CN(c5ccc(C#N)n6ncc(Br)c56)C[C@@]3(C(F)(F)F)C4)o2)CC1` [Compound 83, 3-bromo-4-((1S,5R)-1-(5-(1-methylpiperidin-4-yl)-1,3,4-oxadiazol-2-yl)-5-(trifluoromethyl)-3-azabicyclo[3.1.0]hexan-3-yl)pyrazolo[1,5-a]pyridine-7-carbonitrile], for which the IC50 was more than 1000 nM.
With `CN1CCC(c2nnc([C@]34CN(c5ccc(C#N)n6ncc(Cl)c56)C[C@@]3(C(F)(F)F)C4)o2)CC1` [Compound 84, 3-chloro-4-((1S,5R)-1-(5-(1-methylpiperidin-4-yl)-1,3,4-oxadiazol-2-yl)-5-(trifluoromethyl)-3-azabicyclo[3.1.0]hexan-3-yl)pyrazolo[1,5-a]pyridine-7-carbonitrile] the figure was less than 1000 nM; with `CN1CCC(c2nnc([C@]34CN(c5c(Br)cc(C#N)n6ncc(Br)c56)C[C@@]3(C(F)(F)F)C4)o2)CC1` [Compound 85, 3,5-dibromo-4-((1S,5R)-1-(5-(1-methylpiperidin-4-yl)-1,3,4-oxadiazol-2-yl)-5-(trifluoromethyl)-3-azabicyclo[3.1.0]hexan-3-yl)pyrazolo[1,5-a]pyridine-7-carbonitrile], less than 1000 nM; with `CN1CCC(c2nnc([C@]34CN(c5c(Br)cc(C#N)n6nccc56)C[C@@]3(C(F)(F)F)C4)o2)CC1` [Compound 86, 5-bromo-4-((1S,5R)-1-(5-(1-methylpiperidin-4-yl)-1,3,4-oxadiazol-2-yl)-5-(trifluoromethyl)-3-azabicyclo[3.1.0]hexan-3-yl)pyrazolo[1,5-a]pyridine-7-carbonitrile], less than 100 nM.
With `CN1CCC(c2nnc([C@]34CN(c5ccc(C(F)(F)F)n6nccc56)C[C@@]3(C(F)(F)F)C4)o2)CC1` [Compound 87, 2-(1-methylpiperidin-4-yl)-5-((1S,5R)-5-(trifluoromethyl)-3-(7-(trifluoromethyl)pyrazolo[1,5-a]pyridin-4-yl)-3-azabicyclo[3.1.0]hexan-1-yl)-1,3,4-oxadiazole] the figure was less than 1000 nM; with `CN1CCC(F)(c2nnc([C@]34CN(c5ccc(C#N)n6nccc56)C[C@@]3(C(F)(F)F)C4)o2)CC1` [Compound 90, 4-((1S,5R)-1-(5-(4-fluoro-1-methylpiperidin-4-yl)-1,3,4-oxadiazol-2-yl)-5-(trifluoromethyl)-3-azabicyclo[3.1.0]hexan-3-yl)pyrazolo[1,5-a]pyridine-7-carbonitrile], less than 100 nM; with `CN1CCC(c2nnc([C@]34CN(c5ccc(C#N)c6ncnn56)C[C@@]3(C(F)(F)F)C4)o2)CC1` [Compound 91, 5-((1S,5R)-1-(5-(1-methylpiperidin-4-yl)-1,3,4-oxadiazol-2-yl)-5-(trifluoromethyl)-3-azabicyclo[3.1.0]hexan-3-yl)-[1,2,4]triazolo[1,5-a]pyridine-8-carbonitrile], less than 100 nM.
With `CN1CCC(Oc2nnc([C@]34CN(c5ccc(C(F)(F)F)c6ncccc56)C[C@@]3(C(F)(F)F)C4)o2)CC1` [Compound 92, 2-((1-methylpiperidin-4-yl)oxy)-5-((1S,5R)-5-(trifluoromethyl)-3-(8-(trifluoromethyl)quinolin-5-yl)-3-azabicyclo[3.1.0]hexan-1-yl)-1,3,4-oxadiazole] the figure was less than 100 nM; with `CN1CCC(Oc2nnc([C@]34CN(c5ccc(OC(F)(F)F)c6ncccc56)C[C@@]3(C(F)(F)F)C4)o2)CC1` [Compound 93, 2-((1-methylpiperidin-4-yl)oxy)-5-((1S,5R)-5-(trifluoromethyl)-3-(8-(trifluoromethoxy)quinolin-5-yl)-3-azabicyclo[3.1.0]hexan-1-yl)-1,3,4-oxadiazole], less than 100 nM; with `CN1CCC(O)(c2nnc([C@]34CN(c5ccc(C(F)(F)F)c6ncccc56)C[C@@]3(C(F)(F)F)C4)o2)CC1` [Compound 94, 1-methyl-4-(5-((1S,5R)-5-(trifluoromethyl)-3-(8-(trifluoromethyl)quinolin-5-yl)-3-azabicyclo[3.1.0]hexan-1-yl)-1,3,4-oxadiazol-2-yl)piperidin-4-ol], less than 100 nM.
`CN1CC(Cc2nnc([C@]34CN(c5ccc(C(F)(F)F)c6ncccc56)C[C@@]3(C(F)(F)F)C4)o2)C1` [Compound 95, 2-((1-methylazetidin-3-yl)methyl)-5-((1S,5R)-5-(trifluoromethyl)-3-(8-(trifluoromethyl)quinolin-5-yl)-3-azabicyclo[3.1.0]hexan-1-yl)-1,3,4-oxadiazole]: the IC50 is less than 100 nM.
Regarding `FC(F)(F)Oc1ccc(N2C[C@]3(c4nnc(C5(F)CCNCC5)o4)C[C@]3(C(F)(F)F)C2)c2cccnc12` [Compound 96, 2-(4-fluoropiperidin-4-yl)-5-((1S,5R)-3-(8-(trifluoromethoxy)quinolin-5-yl)-5-(trifluoromethyl)-3-azabicyclo[3.1.0]hexan-1-yl)-1,3,4-oxadiazole], the IC50 was less than 100 nM.
As for `CN1CCC(Oc2nnc([C@]34CN(c5ccc(C#N)c6ncnn56)C[C@@]3(C(F)(F)F)C4)o2)CC1` [Compound 97, 5-((1S,5R)-1-(5-((1-methylpiperidin-4-yl)oxy)-1,3,4-oxadiazol-2-yl)-5-(trifluoromethyl)-3-azabicyclo[3.1.0]hexan-3-yl)-[1,2,4]triazolo[1,5-a]pyridine-8-carbonitrile], the figure is less than 100 nM.

Values taken from patent EP4806891A1 (Kangbaida (Sichuan) Biotechnology Co., Ltd., priority 2023, dated 2025).
